# From patent US7291732B2, “Isomeric fused pyrrolocarbazoles and isoindolones” (Cephalon, Inc., priority 1999, dated 2007)
# Where two headings read alike, the source gives them in different places.
# Experiments:
# [1] = target: T1, baculovirus-expressed VEGF receptor (human flk-1, KDR, VEGFR2) kinase domain (Homo sapiens, UniProt P35968); assay: VEGF receptor kinase activity inhibition, ELISA assay; assay type: biochemical; settings: for VEGFR kinase (% inhibition @ 300 nM): 300 nM compound, value printed in parentheses; for VEGFR kinase (% inhibition @ 300 nM) / IC50: 40 μM ATP; for IC50: value printed without parentheses, read-out: VEGFR kinase IC50
# T1 construct: VEGF receptor (human flk-1, KDR, VEGFR2) kinase domain; made in house
# Protocol: Isomeric fused pyrrolocarbazole and isoindolone compounds were examined for their inhibitory effects on the kinase activity of baculovirus-expressed VEGF receptor (human flk-1, KDR, VEGFR2) kinase domain using the procedure described for the trkA kinase ELISA assay described above. The kinase reaction mixture, consisting of 50 mM Hepes, pH 7.4, 40 μM ATP, 10 mM MnCl2, 0.1% BSA, 2% DMSO, and various concentrations of inhibitor, was transferred to PLC-γ/GST-coated plates. VEGFR kinase was added and the reaction was allowed to proceed for 15 min at 37° C. Detection of phosphorylated product was accomplished by addition of anti-phosphotyrosine antibody (UBI). A secondary enzyme-conjugated antibody was delivered to capture the antibody-phosphorylated PLC-γ/GST complex. The activity of the bound enzyme was measured via an amplified detection system (Gibco-BRL). Inhibition data were analyzed using the sigmoidal dose-response (variable slope) equation in GraphPad Prism Results are summarized in Table 6.
# [2] = target: T2, baculovirus-expressed human trkA cytoplasmic domain (Homo sapiens, UniProt P04629); assay: trkA tyrosine kinase activity inhibition, ELISA-based assay; assay type: biochemical; settings: for inhibition at 0.3 µM: read-out: trkA (% inhibition @ 300 nM)
# T2 construct: baculovirus-expressed human trkA cytoplasmic domain; made in house
# Protocol: Selected isomeric fused pyrrolocarbazole and isoindolone compounds were tested for their ability to inhibit the kinase activity of baculovirus-expressed human trkA cytoplasmic domain using an ELISA-based assay as previously described (Angeles et al, Anal. Biochem. 236: 49-55, 1996). Briefly, the 96-well microtiter plate was coated with substrate solution (recombinant human phospholipase C-γl/glutathione S-transferase fusion protein (Rotin et al., EMBO J., II: 559-567, 1992). Inhibition studies were performed in 100 μl assay mixtures containing 50 mM Hepes, pH 7.4, 40 μM ATP, 10 mM MnCl2, 0.1% BSA; 2% DMSO, and various concentrations of inhibitor. The reaction was initiated by addition of trkA kinase and allowed to proceed for 15 minutes at 37° C. An antibody to phosphotyrosine (UBI) was then added, followed by a secondary enzyme-conjugated antibody, alkaline phosphatase-labelled goat anti-mouse IgG (Bio-Rad). The activity of the bound enzyme was measured via an amplified detection system (Gibco-BRL). Inhibition data were analyzed using the sigmoidal dose-response (variable slope) equation in GraphPad Prism.
# [3] = target: T3, baculovirus-expressed PDGFβ receptor kinase domain (Homo sapiens, UniProt P09619); assay: PDGF receptor kinase activity inhibition, ELISA assay; assay type: biochemical; settings: for inhibition at 1 µM: read-out: PDGFRβ (% inhibition @ 1 μM)
# T3 construct: baculovirus-expressed PDGFβ receptor kinase domain; made in house
# Protocol: Isomeric fused pyrrolocarbazole and isoindolone compounds were examined for their inhibitory effects on the kinase activity of baculovirus-expressed PDGFβ receptor kinase domain using the trkA kinase ELISA described above. Assays were performed in substrate (PLC-γ/GST)-coated 96-well microtiter plates. Each 100-μl reaction mixture contained 50 mM HEPES, pH 7.4, 20 μM ATP, 10 mM MnCl2, 0.1% BSA, 2% DMSO, and various concentrations of inhibitor. The reaction was initiated by addition of prephosphorylated recombinant human enzyme (10 ng/ml PDGFβ) and allowed to proceed for 15 minutes at 37° C. The prephosphorylated enzyme was prepared prior to use by incubation of the kinase in buffer containing 20 μM ATP and 10 mM MnCl2 for 1 hour at 4 C. Detection of phosphorylated product was done by adding horseradish peroxidase (HRP)-conjugated anti-phosphotyrosine antibody (UBI). The HRP substrate solution containing 3,3′-5,5′-tetramethylbenzidine and hydrogen peroxide was later added and the plates were incubated for 10 minutes at room temperature. The reaction was quenched with acid and the resulting absorbance was read at 450 nm using a Microplate Bio-kinetics Reader (Bio-Tek Instrument EL 312e). Inhibition data were analyzed using the sigmoidal dose-response (variable slope) equation in GraphPad Prism.
# [4] = 300 nM compound, 40 μM ATP, value printed in parentheses
# [5] = 1 μM compound, 20 μM ATP, value printed in parentheses
# T2 sequence (P04629 440-796 limits assumed): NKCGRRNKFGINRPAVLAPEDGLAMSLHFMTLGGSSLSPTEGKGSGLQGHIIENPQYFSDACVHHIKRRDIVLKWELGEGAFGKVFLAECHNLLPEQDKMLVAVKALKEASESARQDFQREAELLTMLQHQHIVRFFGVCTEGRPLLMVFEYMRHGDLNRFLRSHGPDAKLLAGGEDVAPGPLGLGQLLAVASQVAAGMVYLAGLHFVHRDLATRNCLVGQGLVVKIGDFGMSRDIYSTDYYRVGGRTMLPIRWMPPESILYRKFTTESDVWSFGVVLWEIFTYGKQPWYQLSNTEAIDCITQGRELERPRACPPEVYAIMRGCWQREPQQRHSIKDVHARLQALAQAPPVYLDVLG
# T1 sequence (P35968 834-1162 limits assumed): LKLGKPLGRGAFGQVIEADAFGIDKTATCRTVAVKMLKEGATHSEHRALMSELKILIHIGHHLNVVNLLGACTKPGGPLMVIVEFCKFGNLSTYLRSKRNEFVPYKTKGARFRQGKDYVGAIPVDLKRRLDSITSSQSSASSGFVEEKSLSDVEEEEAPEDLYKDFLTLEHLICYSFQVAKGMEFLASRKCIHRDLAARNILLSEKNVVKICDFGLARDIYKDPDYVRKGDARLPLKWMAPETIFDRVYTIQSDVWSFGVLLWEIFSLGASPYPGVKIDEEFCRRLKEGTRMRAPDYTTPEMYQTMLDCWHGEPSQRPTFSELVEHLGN
# T3 sequence (P09619 600-962 limits assumed): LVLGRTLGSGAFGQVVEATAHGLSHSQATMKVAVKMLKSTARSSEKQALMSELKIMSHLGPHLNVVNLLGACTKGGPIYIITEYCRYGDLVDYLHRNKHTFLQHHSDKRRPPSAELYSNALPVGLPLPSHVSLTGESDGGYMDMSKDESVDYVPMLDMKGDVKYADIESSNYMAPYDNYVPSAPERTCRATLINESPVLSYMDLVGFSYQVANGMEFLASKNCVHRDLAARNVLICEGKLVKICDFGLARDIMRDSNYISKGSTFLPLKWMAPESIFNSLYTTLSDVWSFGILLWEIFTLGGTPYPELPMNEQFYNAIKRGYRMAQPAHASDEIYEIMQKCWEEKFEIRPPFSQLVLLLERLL
compound,measurement,setting,value
O=C(O)CCn1c2ccccc2c2c3c(c4c(c21)-c1ccccc1CC4)C(=O)NC3=O [IV-22],VEGFR kinase (% inhibition @ 300 nM),[1],(8) %
CNC(=S)NCCCn1c2ccccc2c2c3c(c4c(c21)-c1ccccc1CC4)C(=O)NC3=O [IV-26],VEGFR kinase (% inhibition @ 300 nM),[1],(10) %
Cn1c2ccccc2c2c3c(c4c(c21)-c1ccccc1C4)C(=O)NC3=O [IV-3],melting point,,> 262 °C
same,IC50,[1],0.332 µM
same,inhibition at 0.3 µM,[2]; [4],18%
same,inhibition at 1 µM,[3]; [5],0%
O=C(O)CCc1ccc2[nH]c3c4c(c5c(c3c2c1)C(=O)NC5=O)CCc1ccccc1-4 [IV-40],VEGFR kinase (% inhibition @ 300 nM),[1],(10) %
O=C1NCc2c1c1c(c3[nH]c4ccccc4c23)-c2ccccc2C1 [IX-1],VEGFR kinase (% inhibition @ 300 nM),[1],(10) %
same,trkA (% inhibition @ 300 nM),[2]; [4],(9) %
same,PDGFRβ (% inhibition @ 1 μM),[3]; [5],(23) %
O=C1NC(=O)c2c1c1c(c3c2c2ccccc2n3CCCNC(=O)C2CCCN2)-c2ccccc2CC1 (centres unmarked) [IV-30],VEGFR kinase (% inhibition @ 300 nM),[1],(1) %
N#CCCCn1c2ccccc2c2c3c(c4c(c21)-c1ccccc1CC4)C(=O)NC3=O [IV-20],VEGFR kinase (% inhibition @ 300 nM),[1],(11) %
O=C1NC(=O)c2c1c1c(c3[nH]c4ccc(C=Cc5ccccn5)cc4c23)-c2ccccc2CC1 [IV-39],VEGFR kinase (% inhibition @ 300 nM),[1],(8) %
O=c1[nH]c(=O)c2c1c1c(=O)c3ccccc3c1c1[nH]c3ccccc3c12 [IV-2],IC50,[1],0.87 µM
same,inhibition at 0.3 µM,[2]; [4],2%
same,inhibition at 1 µM,[3]; [5],17%
O=C1NC(=O)c2c1c1c(c3[nH]c4ccccc4c23)-c2ccccc2C1 [IV-1],melting point,,> 300 °C
same,IC50,[1],0.071 µM
same,inhibition at 0.3 µM,[2]; [4],0%
same,inhibition at 1 µM,[3]; [5],6%
O=C1NC(=O)c2c1c1c(c3[nH]c4ncccc4c23)-c2ccccc2CC1 [XIII],IC50,[1],8.39 µM
same,inhibition at 1 µM,[3]; [5],10%
N#Cc1ccc2c(c1)c1c3c(c4c(c1n2CCCOCc1ccccc1)-c1ccccc1CC4)C(=O)NC3=O [IV-44],VEGFR kinase (% inhibition @ 300 nM),[1],(3) %
CC(=O)NCCCn1c2ccccc2c2c3c(c4c(c21)-c1ccccc1CC4)C(=O)NC3=O [IV-25],VEGFR kinase (% inhibition @ 300 nM),[1],(0) %
O=C(O)C=Cc1ccc2[nH]c3c4c(c5c(c3c2c1)C(=O)NC5=O)CCc1ccccc1-4 [IV-37],VEGFR kinase (% inhibition @ 300 nM),[1],(11) %
CCOC(=O)CCn1c2ccccc2c2c3c(c4c(c21)-c1ccccc1CC4)C(=O)NC3=O [IV-21],VEGFR kinase (% inhibition @ 300 nM),[1],(7) %
O=C1NC(=O)c2c1c1c(c3[nH]c4ccc(Br)cc4c23)-c2ccccc2CC1 [IV-9],melting point,,> 300 °C
same,IC50,[1],2.86 µM
same,inhibition at 0.3 µM,[2]; [4],6%
same,inhibition at 1 µM,[3]; [5],20%
CS(=O)(=O)N1CCCC1C(=O)NCCCn1c2ccccc2c2c3c(c4c(c21)-c1ccccc1CC4)C(=O)NC3=O (centres unmarked) [IV-31],VEGFR kinase (% inhibition @ 300 nM),[1],(10) %
O=C1NC(=O)c2c1c1c(c3[nH]c4ccccc4c23)-c2ccccc2C1CO (centres unmarked) [IV-15],VEGFR kinase (% inhibition @ 300 nM),[1],(7) %
O=C1NC(=O)c2c1c1c(c3[nH]c4ccccc4c23)-c2ccccc2OC1 [IV-11],IC50,[1],0.555 µM
same,inhibition at 0.3 µM,[2]; [4],4%
same,inhibition at 1 µM,[3]; [5],6%
O=C1NCc2c1c1c(c3[nH]c4ccccc4c23)-c2ccccc2CC1 [IX-2],IC50,[1],8.75 µM
same,trkA (% inhibition @ 300 nM),[2]; [4],(9) %
same,PDGFRβ (% inhibition @ 1 μM),[3]; [5],(8) %
NCCCn1c2ccccc2c2c3c(c4c(c21)-c1ccccc1CC4)C(=O)NC3=O [IV-23],VEGFR kinase (% inhibition @ 300 nM),[1],(0) %
O=C1NC(=O)c2c1c1c(c3[nH]c4ccccc4c23)-c2ccccc2C1C(O)c1ccncc1 (centres unmarked) [IV-18],VEGFR kinase (% inhibition @ 300 nM),[1],(8) %
CNC(=S)NCc1ccc2[nH]c3c4c(c5c(c3c2c1)C(=O)NC5=O)CCc1ccccc1-4 [IV-35],VEGFR kinase (% inhibition @ 300 nM),[1],43%
same,IC50,[1],0.316 µM
O=C1NC(=O)c2c1c1c(c3[nH]c4ccccc4c23)-c2ccccc2C1c1cccs1 (centres unmarked) [IV-16],VEGFR kinase (% inhibition @ 300 nM),[1],(14) %
O=C1NC(=O)c2c1c1c(c3[nH]c4ccccc4c23)-c2ccccc2CC1 [IV-5],IC50,[1],0.16 µM
same,trkA (% inhibition @ 300 nM),[2]; [4],(14) %
same,PDGFRβ (% inhibition @ 1 μM),[3]; [5],(26) %
CC(C)(C)OC(=O)N1CCCC1C(=O)NCCCn1c2ccccc2c2c3c(c4c(c21)-c1ccccc1CC4)C(=O)NC3=O (centres unmarked) [IV-29],VEGFR kinase (% inhibition @ 300 nM),[1],(1) %
O=C1NC(=O)c2c1c1ccc3sccc3c1c1[nH]c3ccccc3c21 [XVII],IC50,[1],0.796 µM
same,inhibition at 0.3 µM,[2],10%
same,inhibition at 1 µM,[3],24%
N#CCCn1c2ccccc2c2c3c(c4c(c21)-c1ccccc1CC4)C(=O)NC3=O [IV-19],VEGFR kinase (% inhibition @ 300 nM),[1],(4) %
COCCOCC1c2ccccc2-c2c1c1c(c3c2[nH]c2ccccc23)C(=O)NC1=O (centres unmarked) [IV-17],VEGFR kinase (% inhibition @ 300 nM),[1],(3) %
COCC1c2ccccc2-c2c1c1c(c3c2[nH]c2ccccc23)C(=O)NC1=O (centres unmarked) [IV-12],VEGFR kinase (% inhibition @ 300 nM),[1],(19) %
COc1ccc2[nH]c3c4c(c5c(c3c2c1)C(=O)NC5=O)CCc1ccccc1-4 [IV-6],inhibition at 0.3 µM,[1]; read-out: VEGFR kinase (% inhibition @ 300 nM),14%
CS(=O)(=O)NCCCn1c2ccccc2c2c3c(c4c(c21)-c1ccccc1CC4)C(=O)NC3=O [IV-24],VEGFR kinase (% inhibition @ 300 nM),[1],(0) %
O=C1NC(=O)c2c1c1c(c3[nH]c4ccccc4c23)-c2ccccc2C1C(O)c1cccnc1 (centres unmarked) [IV-13],VEGFR kinase (% inhibition @ 300 nM),[1],(8) %
CC(C)(C)OC(=O)C=Cc1ccc2[nH]c3c4c(c5c(c3c2c1)C(=O)NC5=O)CCc1ccccc1-4 [IV-36],VEGFR kinase (% inhibition @ 300 nM),[1],(17) %
O=C1NC(=O)c2c1c1c(c3c2c2ccccc2n3CCCO)-c2ccccc2CC1 [IV-42],VEGFR kinase (% inhibition @ 300 nM),[1],(42) %
O=C1NC(=O)c2c1c1sc3ccccc3c1c1[nH]c3ccccc3c21 [IV-10],IC50,[1],5.33 µM
same,inhibition at 0.3 µM,[2]; [4],6%
same,inhibition at 1 µM,[3]; [5],11%
CC(C)(C)OC(=O)CCc1ccc2[nH]c3c4c(c5c(c3c2c1)C(=O)NC5=O)CCc1ccccc1-4 [IV-38],VEGFR kinase (% inhibition @ 300 nM),[1],(5) %
CS(=O)(=O)NCc1ccc2[nH]c3c4c(c5c(c3c2c1)C(=O)NC5=O)CCc1ccccc1-4 [IV-34],VEGFR kinase (% inhibition @ 300 nM),[1],(54) %
O=C(NCCCn1c2ccccc2c2c3c(c4c(c21)-c1ccccc1CC4)C(=O)NC3=O)Nc1ccccc1 [IV-27],VEGFR kinase (% inhibition @ 300 nM),[1],(5) %
N#CC=Cc1ccc2[nH]c3c4c(c5c(c3c2c1)C(=O)NC5=O)CCc1ccccc1-4 [IV-43],VEGFR kinase (% inhibition @ 300 nM),[1],(8) %
O=C1NC(=O)c2c1c1c(c3c2c2ccccc2n3CCCOCc2ccccc2)-c2ccccc2CC1 [IV-41],VEGFR kinase (% inhibition @ 300 nM),[1],(34) %
O=C1NCc2c3c(c4c(c21)c1ccccc1n4CCO)-c1ccccc1CC3 [Compound X-4],IC50,[1],0.138 µM
same,inhibition at 0.3 µM,[2]; [4],15%
